Assay results: patent publication US12503436B2, “Compounds and compositions for treating conditions associated with STING activity” (NOVARTIS PHARMA AG, priority 2021, dated 2025)

What follows are molecules tested against STING (Homo sapiens, UniProt Q86WV6, G230A/H232R/R293Q/R71H) (assay: STING reporter assay in THP1-Dual KO-IFNAR2 cells (2′3′cGAMP stimulation, luciferase reporter)). Conditions: 15 μM 2′3′cGAMP stimulation, 24 h, read-out: Pharmaron, THP1_IFNAR2 STING 24 h Luci Normalized: GeoMean EC50.
Type: cell-based
Summary of the method: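 THP1-Dual KO-IFNAR2 cells (2×10E6 cells/mL) with compounds at 0.0017-100 μM final, stimulated with 15 μM final 2′3′cGAMP delivered by Lipofectamine 2000; 24 h at 37 °C. Luciferase in supernatant read with QUANTI-Luc Plus; EC50 derived from luminescence.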

Sequence of STING (Q86WV6 whole entry R71H/G230A/H232R/R293Q): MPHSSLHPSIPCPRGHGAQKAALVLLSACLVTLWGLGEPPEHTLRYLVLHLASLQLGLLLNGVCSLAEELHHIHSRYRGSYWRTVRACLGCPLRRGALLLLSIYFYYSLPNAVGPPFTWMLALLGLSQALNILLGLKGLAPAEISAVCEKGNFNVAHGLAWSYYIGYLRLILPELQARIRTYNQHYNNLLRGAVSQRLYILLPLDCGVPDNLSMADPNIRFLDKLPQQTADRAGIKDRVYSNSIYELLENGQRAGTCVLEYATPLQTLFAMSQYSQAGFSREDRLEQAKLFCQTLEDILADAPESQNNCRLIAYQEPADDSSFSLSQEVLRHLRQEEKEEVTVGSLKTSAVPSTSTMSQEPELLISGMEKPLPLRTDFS

Row | Structure (SMILES) | EC50
1 | C[C@H]1C[C@H](C(=O)Nc2c[nH]c3ccc(OCC[C@@H]4C[C@@H]5CN(CC(F)(F)F)C[C@@H]5C4)cc23)C1 [Compound 341, (1r,3R)-3-methyl-N-(5-(2-((3aR,5r,6aS)-2-(2,2,2-trifluoroethyl)octahydrocyclopenta[c]pyrrol-5-yl)ethoxy)-1H-indol-3-yl)cyclobutane-1-carboxamide] | 200 to 1000 nM
2 | COC1CC(C(=O)Nc2c[nH]c3ccc(OCC[C@@H]4C[C@@H]5CN(CC(F)(F)F)C[C@@H]5C4)cc23)C1 (stereo partly drawn) [Compound 345, 3-methoxy-N-(5-(2-((3aR,5r,6aS)-2-(2,2,2-trifluoroethyl)octahydrocyclopenta[c]pyrrol-5-yl)ethoxy)-1H-indol-3-yl)cyclobutane-1-carboxamide] | 200 to 1000 nM
3 | CC1(C)CC(C(=O)Nc2c[nH]c3ccc(OCC[C@@H]4C[C@@H]5CN(CC(F)(F)F)C[C@@H]5C4)cc23)C1 [Compound 346, 3,3-dimethyl-N-(5-(2-((3aR,5r,6aS)-2-(2,2,2-trifluoroethyl)octahydrocyclopenta[c]pyrrol-5-yl)ethoxy)-1H-indol-3-yl)cyclobutane-1-carboxamide] | 200 to 1000 nM
4 | CC1(C)CC(C(=O)Nc2c[nH]c3ccc(CCOc4ccc(C(F)(F)F)cc4)cc23)C1 [Compound 348, 3,3-dimethyl-N-(5-(2-(4-(trifluoromethyl)phenoxy)ethyl)-1H-indol-3-yl)cyclobutane-1-carboxamide] | 200 to 1000 nM
5 | CC(=O)Nc1c[nH]c2ccc(OCCc3cnn4c3CCCC4)cc12 [Compound 349, N-(5-(2-(4,5,6,7-tetrahydropyrazolo[1,5-a]pyridin-3-yl)ethoxy)-1H-indol-3-yl)acetamide] | 5000 to 100000 nM
6 | CC(=O)Nc1c[nH]c2ccc(OCCc3ccc(C(F)(F)F)cc3)c(Br)c12 [Compound 350, N-(4-bromo-5-(4-(trifluoromethyl)phenethoxy)-1H-indol-3-yl)acetamide] | 1000 to 5000 nM
7 | N#CC1CCC1C(=O)Nc1c[nH]c2ccc(OCc3ccc(C(F)(F)F)cc3)cc12 (centres unmarked) [Compound 351, 2-cyano-N-(5-((4-(trifluoromethyl)benzyl)oxy)-1H-indol-3-yl)cyclobutane-1-carboxamide] | 200 to 1000 nM
8 | COC1CC(C(=O)Nc2c[nH]c3ccc(OCc4ccc(C(F)(F)F)cc4)cc23)C1 (centres unmarked) [Compound 352, 3-methoxy-N-(5-((4-(trifluoromethyl)benzyl)oxy)-1H-indol-3-yl)cyclobutane-1-carboxamide] | 40 to 200 nM
9 | O=C(Nc1c[nH]c2ccc(O[C@H]3C[C@@H](c4ccc(C(F)(F)F)cc4)C3)cc12)C1(C(F)(F)F)CC1 [Compound 353, 1-(trifluoromethyl)-N-(5-(cis-3-(4-(trifluoromethyl)phenyl)cyclobutoxy)-1H-indol-3-yl)cyclopropane-1-carboxamide] | 200 to 1000 nM
10 | CC(C)(C)C(=O)Nc1c[nH]c2ccc(O[C@H]3C[C@@H](c4ccc(C(F)(F)F)cc4)C3)cc12 [Compound 354, N-(5-(cis-3-(4-(trifluoromethyl)phenyl)cyclobutoxy)-1H-indol-3-yl)pivalamide] | 200 to 1000 nM
11 | N#CC1CCC1C(=O)Nc1c[nH]c2ccc(O[C@H]3C[C@@H](c4ccc(C(F)(F)F)cc4)C3)cc12 (stereo partly drawn) [Compound 355, 2-cyano-N-(5-(cis-3-(4-(trifluoromethyl)phenyl)cyclobutoxy)-1H-indol-3-yl)cyclobutane-1-carboxamide] | 200 to 1000 nM
12 | CC1(F)CC(C(=O)Nc2c[nH]c3ccc(O[C@H]4C[C@@H](c5ccc(C(F)(F)F)cc5)C4)cc23)C1 (stereo partly drawn) [Compound 356, 3-fluoro-3-methyl-N-(5-(cis-3-(4-(trifluoromethyl)phenyl)cyclobutoxy)-1H-indol-3-yl)cyclobutane-1-carboxamide] | 200 to 1000 nM
13 | CC1(C(=O)Nc2c[nH]c3ccc(O[C@H]4C[C@@H](c5ccc(C(F)(F)F)cc5)C4)cc23)CCOC1 (stereo partly drawn) [Compound 357, 3-methyl-N-(5-(cis-3-(4-(trifluoromethyl)phenyl)cyclobutoxy)-1H-indol-3-yl)tetrahydrofuran-3-carboxamide] | 200 to 1000 nM
14 | CC1(C(=O)Nc2c[nH]c3ccc(O[C@H]4C[C@@H](c5ccc(C(F)(F)F)cc5)C4)cc23)CCCO1 (stereo partly drawn) [Compound 358, 2-methyl-N-(5-(cis-3-(4-(trifluoromethyl)phenyl)cyclobutoxy)-1H-indol-3-yl)tetrahydrofuran-2-carboxamide] | 1000 to 5000 nM
15 | CC1(C)CC1C(=O)Nc1c[nH]c2ccc(O[C@H]3C[C@@H](c4ccc(C(F)(F)F)cc4)C3)cc12 (stereo partly drawn) [Compound 359, 2,2-dimethyl-N-(5-(cis-3-(4-(trifluoromethyl)phenyl)cyclobutoxy)-1H-indol-3-yl)cyclopropane-1-carboxamide] | 40 to 200 nM
16 | CC1(C(=O)Nc2c[nH]c3ccc(O[C@H]4C[C@@H](c5ccc(C(F)(F)F)cc5)C4)cc23)CCC1 [Compound 360, 1-methyl-N-(5-(cis-3-(4-(trifluoromethyl)phenyl)cyclobutoxy)-1H-indol-3-yl)cyclobutane-1-carboxamide] | 200 to 1000 nM
17 | CC1(C)CC(C(=O)Nc2c[nH]c3ccc(O[C@H]4C[C@@H](c5ccc(C(F)(F)F)cc5)C4)cc23)C1 [Compound 361, 3,3-dimethyl-N-(5-(cis-3-(4-(trifluoromethyl)phenyl)cyclobutoxy)-1H-indol-3-yl)cyclobutane-1-carboxamide] | 40 to 200 nM
18 | N#CC1(C(=O)Nc2c[nH]c3ccc(O[C@H]4C[C@@H](c5ccc(C(F)(F)F)cc5)C4)cc23)CC1 [Compound 362, 1-cyano-N-(5-(cis-3-(4-(trifluoromethyl)phenyl)cyclobutoxy)-1H-indol-3-yl)cyclopropane-1-carboxamide] | 200 to 1000 nM
19 | CC1(C(=O)Nc2c[nH]c3ccc(O[C@H]4C[C@@H](c5ccc(C(F)(F)F)cc5)C4)cc23)CCOCC1 [Compound 363, 4-methyl-N-(5-(cis-3-(4-(trifluoromethyl)phenyl)cyclobutoxy)-1H-indol-3-yl)tetrahydro-2H-pyran-4-carboxamide] | 200 to 1000 nM
20 | O=C(Nc1c[nH]c2ccc(O[C@H]3C[C@@H](c4ccc(C(F)(F)F)cc4)C3)cc12)C1CC1(F)F (stereo partly drawn) [Compound 364, 2,2-difluoro-N-(5-(cis-3-(4-(trifluoromethyl)phenyl)cyclobutoxy)-1H-indol-3-yl)cyclopropane-1-carboxamide] | 40 to 200 nM
21 | O=C(Nc1c[nH]c2ccc(O[C@H]3C[C@@H](c4ccc(C(F)(F)F)cc4)C3)cc12)C1CCOCC1 [Compound 365, N-(5-(cis-3-(4-(trifluoromethyl)phenyl)cyclobutoxy)-1H-indol-3-yl)tetrahydro-2H-pyran-4-carboxamide] | 40 to 200 nM
22 | O=C(Nc1c[nH]c2ccc(OCC[C@@H]3C[C@@H]4CN(CC(F)(F)F)C[C@@H]4C3)cc12)C1(C(F)(F)F)CC1 [Compound 366, N-(5-(2-((3aR,5r,6aS)-2-(2,2,2-trifluoroethyl)octahydrocyclopenta[c]pyrrol-5-yl)ethoxy)-1H-indol-3-yl)-1-(trifluoromethyl)cyclopropane-1-carboxamide] | 200 to 1000 nM
23 | CC(C)(C)C(=O)Nc1c[nH]c2ccc(OCC[C@@H]3C[C@@H]4CN(CC(F)(F)F)C[C@@H]4C3)cc12 [Compound 367, N-(5-(2-((3aR,5r,6aS)-2-(2,2,2-trifluoroethyl)octahydrocyclopenta[c]pyrrol-5-yl)ethoxy)-1H-indol-3-yl)pivalamide] | 200 to 1000 nM
